Read-outs that look alike come from different tables or passages of the source.
Assays:
[1] = test system: ALK+/ROS1+ advanced NSCLC; test: Exposure–efficacy analysis (logistic regression, Cox regression, SFBE tumor model); type: in vivo, human; conditions: for Incidence CR: 61 patients
Protocol: All studies were conducted in accordance with the Good Clinical Practice guidelines and Declaration of Helsinki. The protocols were approved by the independent ethics committee of each investigation site, and all subjects provided informed consent. The tumor responses were assessed by the IRC based on the Response Evaluation Criteria in Solid Tumors (RECIST) 1.1 conditions. The exposure–efficacy analyses of SAF-189s were conducted based on data from patients in the SAF001 study to explore the relationships between systemic exposure and efficacy endpoints, including the ORR, PFS, and duration of response (DOR). The exposure–safety analyses of SAF-189s were conducted based on data from patients in the SAF001 study to explore the relationships between the systemic exposure and safety endpoints, including the adverse events (AEs) of interest. In these studies, the SAF-189s plasma concentrations were analyzed using validated liquid chromatography tandem mass spectrometry within the assay range of 0.5–150 ng mL^–1.
The exposure–efficacy analysis entails evaluation of the relationships between the individual SAF-189s exposures and efficacy endpoints. These efficacy endpoints include the ORR, PFS, DOR, and tumor size. In Eq. 1, the Stein-Fojo biexponential (SFBE) model was used to characterize the tumor shrinkage (mean shrinkage rate, KS) and tumor growth inhibition (mean regrowth rate, KG) parameters to compute the sum of longest lesion diameters (SOD). SODij= It≤0×SOD0i×expKGi×tij+It>0×SOD0i×exp−KSi×tij+expKGi×tij−1+eij. (1)
The individual post hoc PK parameters from the final PopPK model and the most prevalent dosage were used to calculate Cmin,ss and AUCss at steady state. The exposure was assessed for its relationship with the ORR using a logistic regression model and with PFS/DOR using the Cox regression model. The individual model parameter estimates (KGi, KSi) were plotted versus Cmin, ss_i to explore the relationships between exposure and tumor growth.

[2] = test system: ALK+/ROS1+ advanced NSCLC; conditions: ref Yang et al., cited from earlier work; for ORR: phase II, 2022a
efflux transporter P-gp = conditions: in vitro studies, no reference given; cited from earlier work
CYP3A = conditions: no reference given; cited from earlier work
[3] = test system: tumor xenograft models derived from genetically engineered cells overexpressing ALK rearrangements, ROS1+ rearrangements, or crizotinib-resistant ALK and ROS1 …; parameters: method as in Xia et al., 2021; conditions: tumor xenograft and CNS tumor models; ref Xia et al., 2021; cited from earlier work
[4] = Cmin,ss quartile 1, 61 patients
[5] = Cmin,ss quartile 2, 61 patients
[6] = Cmin,ss quartile 3, 61 patients
[7] = Cmin,ss quartile 4, 61 patients
[8] = parameter Cmin,ss, 192 patients, p 0.251
[9] = parameter Cmin,ss, 244 patients, p 0.059
[10] = ROS1-naive patients, phase IIa, 2022b

## Cc1cc(Nc2ncc(Cl)c(Nc3ccccc3S(=O)(=O)C(C)C)n2)c2c(c1C1CCN(C)CC1)C[C@@H](C)O2 [SAF-189s]
[1]; Cmin,ss quartile 1 (18–60.7 ng mL^–1)
  Incidence CR: 1 (1.64) N (%)
[1]; [4]
  Incidence NE: 0 (0.00) N (%)
  Incidence PD: 3 (4.92) N (%)
  Incidence PR: 53 (86.89) N (%)
  Incidence SD: 4 (6.56) N (%)
[1]; Cmin,ss quartile 2 (60.7–79 ng mL^–1)
  Incidence CR: 0 (0.00) N (%)
[1]; [5]
  Incidence NE: 0 (0.00) N (%)
  Incidence PD: 4 (6.56) N (%)
  Incidence PR: 44 (72.13) N (%)
  Incidence SD: 13 (21.31) N (%)
[1]; Cmin,ss quartile 3 (79–108 ng mL^–1)
  Incidence CR: 0 (0.00) N (%)
[1]; [6]
  Incidence NE: 0 (0.00) N (%)
  Incidence PD: 2 (3.28) N (%)
  Incidence PR: 47 (77.05) N (%)
  Incidence SD: 12 (19.67) N (%)
[1]; Cmin,ss quartile 4 (108–182 ng mL^–1)
  Incidence CR: 1 (1.64) N (%)
[1]; [7]
  Incidence NE: 0 (0.00) N (%)
  Incidence PD: 3 (4.92) N (%)
  Incidence PR: 46 (75.41) N (%)
  Incidence SD: 11 (18.03) N (%)
[1]; logistic regression, all patients (n = 244), p = 0.084
  odds ratio (OR), probability of achieving ORR vs Cmin,ss: 0.556
[1]; [8]
  Cox regression estimate, DOR: 0.0059
  Hazard ratio (95% CI), DOR: 1.006 (0.996–1.016)
[1]; [9]
  Cox regression estimate, PFS: 0.0071
  Hazard ratio (95% CI), PFS: 1.007 (1.000–1.015)
[1]; tumor growth inhibition (SFBE) model, most patients
  tumor size after initiation of treatment: decreased rapidly
[2]; [10]
  IRC-assessed ORR: 94.1%
  median progression-free survival (PFS): 16.5 months
[2]; ALK+ patients with brain metastases
  ORR: 74.6%
[2]; ALK-inhibitor-naive patients
  ORR: 92.3%
[2]; crizotinib-pretreated group
  ORR: 65.4%
[2]; overall ALK+ patients
  ORR: 78.7%
[2]; phase IIb, ROS1-naive, brain metastases subgroup, 2022b
  IRC-assessed ORR: 85.7%
[2]; phase IIb, overall ROS1-naive patients, 2022b
  IRC-assessed ORR: 80.4%
Efflux transporter P-gp
  P-gp inhibitor: inhibitor
  P-gp substrate: substrate
CYP3A
  CYP3A substrate: substrate of CYP3A
[3]
  antitumor effects: Strong antitumor effects

Source: publication PMC11286589, “Population pharmacokinetics and exposure–response analyses of SAF-189s in Chinese patients with ALK+/ROS1+ non-small cell lung cancer” (Frontiers in Pharmacology, 2024)
